# “And” between values parts separate entries of the source, which are not always exact repeats. Identical values can stand only once.
# Key:
# [1] = Cholesterol, TG, NEFA and glycerol in serum and liver; type: in vivo, mouse; set-up: liver NEFA, Mean 2 (group mean) / Plasma VLDL cholesterol in db/db mice (VLDL-C) / Plasma VLDL cholesterol in db/db mice, group mean / TC in liver_CT2KO (total cholesterol in the liver of CRTC2-KO) / TC in liver_WT (total cholesterol in the liver) / TC in liver_WT, mean / TC in liver_WT, Mean Diff. VEH vs. drug / TC in liver_CRTC2KO, mean / TC in liver_CRTC2KO, Mean Diff. VEH vs. drug: unit not given here; conditions: for plasma NEFA, Mean 2 (group mean): vs 0mg/kg mean 1.02; for liver glycerol/protein: Figure 5i; for hepatic NEFA / liver NEFA, Mean 2 (group mean): Figure 5h; for liver NEFA, Mean 2 (group mean): vs 0mg/kg mean 165.9; for Plasma total cholesterol, Mean 1 (drug group): N 6; for HF, plasma TG / HF, plasma TG, group mean / HF, plasma TG (Fast, TG): HF mice; for HF, plasma TG, group mean: n=6; for HF, plasma TG (Fast, TG): fasted
# Protocol: Serum total cholesterol (TC), LDL cholesterol (LDL-C), and HDL cholesterol (HDL-C) levels were detected using commercial kits (Beihua, China), and serum VLDL protein was determined by ELISA (Jiancheng, China).
# The plasma TG and NEFA levels were determined using corresponding kits from Beihua (China) and WAKO (Japan), respectively. The TG levels of liver and WAT were tested by TG kit (Applygene, China). The NEFA in the liver and WAT were extracted by chloroform–methanol and then subjected to NEFA assay (WAKO).
# [2] = tested on: mTORC1; assay: Immunoblotting of mTORC1 signaling, mature SREBP1 and FASN in primary hepatocytes; type: cell-based, mouse; conditions: glucagon-insulin-treated primary hepatocytes
# Protocol: Fi g u re B . Immunoblotting analysis of phosphorated or total protein amounts of S6K , mature SREBP -1and FASN in primary hepatocyt es . The cells wer epretreated with APC (10 μ M) for 2 hours , exposed to glucagon (100 nM) for 4 hours, and t hen followed by12- hour insulin (100 nM) incubationbefore collection.
# (1 picture or pasted object on this page, not shown here) […]
# I have a few more points that have to be addressed in the revised work.
# 1. In Figure B, it appeared that APC-induced p-S6K level was rather inhibited by glu/ins treatment (lane 3 vs lane 4). Is it significant?
# Response: We agree wit h Reviewer1’ s comments that the western blotting band of p-S6K level of lane 4 seems weaker than that of lane3 in Figure B. However, we performed the densitometry analysis of all the results from three independent […]
# independent of its effect on reducing SREBP-1c expression and the subsequent repression of lipogenesis. The authors should simply run western blot for mTORC1 signaling by utilizing the existing samples.
# Response: We are grat eful for Reviewer1’s com ments. […]
# to glucagon (100 nM) for 4 hours, and then followed by 12- hour insulin (100 nM) incubation before collection. […] Data are represented as mean ± SEM. *, p < 0.05; **, p < 0.01; p values were determined by two- way ANOVA followed Bonferroni’s multiple comparisons test. […]
# [3] = APC 10 mg/kg, individual animals
# [4] = APC 20 mg/kg, individual animals
# [5] = APC-10mg/kg, individual mice, 10 mg/kg
# [6] = APC-20mg/kg, individual mice, 20 mg/kg
# [7] = HF mice plasma, APC 10 mg/kg, N=5
# [8] = HF mice plasma, APC 10 mg/kg, individual animals
# [9] = HF mice plasma, APC 20 mg/kg, N=5
# [10] = HF mice plasma, APC 20 mg/kg, individual animals
# [11] = db/db mice, plasma, individual animals
smiles,measurement,setting,value
"CC(C)=CCc1cc(C=CC(=O)O)cc(CC=C(C)C)c1O [APC, 3,5-diprenyl-4-hydroxycinnamic acid]",liver TG normolized by protein,[1]; [3],86.3991 µM/mg and 171.894 µM/mg and 414.053 µM/mg and 275.641 µM/mg and 201.326 µM/mg
same,"liver TG normolized by protein, group mean","[1]; APC 10 mg/kg, n=5",229.9
same,plasma NEFA,"[1]; APC 10 mg/kg, individual mice, Figure 5g",1.19 mM (2×) and 1.033 mM and 1.294 mM and 1.373 mM
same,"plasma NEFA, Mean 2 (group mean)","[1]; APC 10mg/kg, n=5, Figure 5g",1.216
same,liver TG normolized by protein,[1]; [4],85.5962 µM/mg and 137.868 µM/mg and 107.422 µM/mg and 121.195 µM/mg and 111.821 µM/mg
same,plasma NEFA,"[1]; APC 20 mg/kg, individual mice, Figure 5g",1.765 mM and 1.686 mM and 1.451 mM and 1.242 mM and 1.507 mM
same,"plasma NEFA, Mean 2 (group mean)","[1]; APC 20mg/kg, n=5, Figure 5g",1.53
same,liver glycerol/protein,[1]; [5],49.7505 nM/mg and 67.3705 nM/mg and 57.1365 nM/mg and 57.0635 nM/mg and 49.612 nM/mg
same,hepatic NEFA,[1]; [5],39.07 mM/mg protein and 106.88 mM/mg protein and 150.80 mM/mg protein and 112.30 mM/mg protein and 101.67 mM/mg protein
same,"liver NEFA, Mean 2 (group mean)","[1]; APC-10mg/kg, n=5",102.1
same,liver glycerol/protein,[1]; [6],43.0466 nM/mg and 45.5622 nM/mg and 43.2605 nM/mg and 44.1634 nM/mg and 41.762 nM/mg
same,hepatic NEFA,[1]; [6],39.34 mM/mg protein and 26.14 mM/mg protein and 65.42 mM/mg protein and 29.72 mM/mg protein and 45.95 mM/mg protein
same,"liver NEFA, Mean 2 (group mean)","[1]; APC-20mg/kg, n=5",41.31
same,NEFA and glycerol levels in the liver,[1]; DIO mice,reduced
same,NEFA levels in the plasma,[1]; DIO mice,significantly enhanced
same,"TG in serum and liver; TC, LDL-C, HDL-C, VLDL-C in serum","[1]; DIO mice, i.p. daily 5 weeks",reduced
same,"Plasma total cholesterol, Mean Diff. vs. VEH","[1]; Figure 6h, CRTC2KO mice",5.091 mg/dL
same,"Plasma total cholesterol, Mean 1 (drug group)","[1]; Figure 6h, CRTC2KO mice, group mean",223.9 mg/dL
same,TC in plasma_CRTC2KO (plasma total cholesterol),"[1]; Figure 6h, CRTC2KO mice, individual mice",238.201 mg/dL and 210.746 mg/dL and 206.493 mg/dL and 224.280 mg/dL and 219.253 mg/dL and 244.388 mg/dL
same,"Plasma total cholesterol, Mean Diff. vs. VEH","[1]; Figure 6h, WT mice",-70.45 mg/dL
same,"Plasma total cholesterol, Mean 1 (drug group)","[1]; Figure 6h, WT mice, group mean",208.1 mg/dL
same,TC in plasma_WT (plasma total cholesterol),"[1]; Figure 6h, WT mice, individual mice",239.748 mg/dL and 207.149 mg/dL and 201.100 mg/dL and 213.669 mg/dL and 202.239 mg/dL and 184.451 mg/dL
same,"Plasma HDLC, group mean",[1]; [7],108.7
same,"Plasma LDLC, group mean",[1]; [7],35.65
same,"Plasma TC, group mean",[1]; [7],159.1
same,Plasma cholesterol fraction: HDL-C,[1]; [8],121.556 mg/dL and 100.915 mg/dL and 96.3277 mg/dL and 114.676 mg/dL and 110.089 mg/dL
same,Plasma cholesterol fraction: TC,[1]; [8],183.52 mg/dL and 143.341 mg/dL and 133.376 mg/dL and 156.357 mg/dL and 178.886 mg/dL
same,Plasma cholesterol fraction: lDL-C,[1]; [8],34.819 mg/dL and 32.859 mg/dL and 26.6884 mg/dL and 35.653 mg/dL and 48.218 mg/dL
same,plasma VLDL-C in HF mice,[1]; [8],7.592 mM and 8.572 mM and 12.094 mM and 7.185 mM and 10.797 mM
same,"Plasma LDLC, group mean",[1]; [9],35.83
same,"Plasma TC, group mean",[1]; [9],149.8
same,Plasma cholesterol fraction: HDL-C,[1]; [10],115.823 mg/dl and 123.85 mg/dl and 106.649 mg/dl (2×) and 111.236 mg/dl
same,Plasma cholesterol fraction: TC,[1]; [10],171.677 mg/dL and 165.819 mg/dL and 163.116 mg/dL and 116.704 mg/dL and 131.574 mg/dL
same,Plasma cholesterol fraction: lDL-C,[1]; [10],30.997 mg/dL and 43.001 mg/dL and 39.18 mg/dL and 41.345 mg/dL and 24.6089 mg/dL
same,plasma VLDL-C in HF mice,[1]; [10],7.201 mM and 6.888 mM and 6.935 mM and 9.593 mM and 6.573 mM
same,"HF, plasma TG",[1]; [3],206.957 mg/dL and 266.745 mg/dL and 324.233 mg/dL and 312.736 mg/dL and 213.856 mg/dL and 276.893 mg/dL
same,"HF, plasma TG, group mean",[1]; APC 10 mg/kg,266.9
same,"HF, plasma TG",[1]; [4],191.58 mg/dL and 265.587 mg/dL and 200.059 mg/dL and 301.238 mg/dL and 218.455 mg/dL and 257.547 mg/dL
same,"HF, plasma TG, group mean",[1]; APC 20 mg/kg,239.1
same,"HF, plasma TG (Fast, TG)",[1]; [3],2.336 mM and 3.011 mM and 3.66 mM and 3.53 mM and 2.414 mM and 3.1252 mM
same,"HF, plasma TG (Fast, TG)",[1]; [4],2.1623 mM and 2.9976 mM and 2.258 mM and 3.4 mM and 2.466 mM and 2.907 mM
same,plasma NEFA,"[1]; WT lean mice ip APC, individual mice",0.3625 mM and 0.9375 mM (2×) and 0.4375 mM (2×) and 0.3875 mM and 0.3375 mM
same,Plasma HDL cholesterol (HDLC) in db/db mice,[1]; [11],102.090 mg/dL and 118.865 mg/dL and 74.315 mg/dL and 130.914 mg/dL and 101.419 mg/dL
same,Plasma LDL cholesterol (LDLC) in db/db mice,[1]; [11],136.268 mg/dL and 110.602 mg/dL and 104.635 mg/dL and 153.302 mg/dL and 128.968 mg/dL
same,Plasma total cholesterol (TC) in db/db mice,[1]; [11],321.58 mg/dL and 345.006 mg/dL and 255.56 mg/dL and 362.043 mg/dL and 310.931 mg/dL
same,plasma TG in db/db mice,[1]; [11],326.962 mg/dL and 300.088 mg/dL and 273.215 mg/dL and 309.046 mg/dL and 418.497 mg/dL
same,"Plasma total cholesterol (TLC) in db/db mice, group mean","[1]; db/db mice, plasma, mean, N 5",319 mg/dL
same,"Plasma VLDL cholesterol in db/db mice, group mean","[1]; db/db mice, plasma, mean, sample size 5",14.3
same,"TC in liver_CRTC2KO, Mean Diff. VEH vs. drug","[1]; liver, CRTC2-KO mice, VEH minus drug",4.338
same,"TG in liver_CT2KO, Mean Diff. vs. VEH","[1]; liver, CRTC2-KO mice, drug minus VEH",1.019 mg/g protein
same,"TC in liver_CRTC2KO, mean","[1]; liver, CRTC2-KO mice, group mean (Mean 2), N=6",47.01
same,"TG in liver_CT2KO, mean","[1]; liver, CRTC2-KO mice, group mean, N=6",16.67 mg/g protein
same,TG in liver_CT2KO,"[1]; liver, CRTC2-KO mice, individual animals, Supp.fig.5c",24.3792 mg/g protein and 12.893 mg/g protein and 18.4652 mg/g protein and 10.1068 mg/g protein and 21.2872 mg/g protein and 12.8898 mg/g protein
same,TC in liver_CT2KO (total cholesterol in the liver of CRTC2-KO),"[1]; liver, CRTC2-KO mice, individual animals, Supp.fig.5d",58.4768 and 29.5309 and 45.7311 and 42.1461 and 61.1694 and 45.0332
same,"TC in liver_WT, Mean Diff. VEH vs. drug","[1]; liver, WT mice, VEH minus drug",14.77
same,"TG in liver_WT, Mean Diff. vs. VEH","[1]; liver, WT mice, drug minus VEH",-10.82 mg/g protein
same,"TC in liver_WT, mean","[1]; liver, WT mice, group mean (Mean 2), N=6",45.59
same,"TG in liver_WT, mean","[1]; liver, WT mice, group mean, N=6",9.137 mg/g protein
same,TG in liver_WT,"[1]; liver, WT mice, individual animals, Supp.fig.5c",10.5445 mg/g protein and 8.1654 mg/g protein and 11.0077 mg/g protein and 10.5773 mg/g protein and 6.8582 mg/g protein and 7.67 mg/g protein
same,TC in liver_WT (total cholesterol in the liver),"[1]; liver, WT mice, individual animals, Supp.fig.5d",40.0962 and 49.3508 and 44.4273 and 45.043 and 48.2093 and 46.4302
same,"plasma and liver cholesterol, liver TG in Crtc2-KO mice","[1]; oral 20 mg/kg, 3 weeks",little effect
same,mTORC1 activity,[2],increased
same,protein amounts of mature SREBP1 and fat acid synthase,[2],decreased

# — publication PMC8752738, “A propolis-derived small molecule ameliorates metabolic syndrome in obese mice by targeting the CREB/CRTC2 transcriptional complex” (Nature Communications, 2022)
